Assays:
[1] = test system: mRNA expression of the erythropoietin gene; assay: Quantitative PCR of erythropoietin mRNA in Hep3B cells; format: cell-based, human; conditions: compound 10 μM, 20% O2, GAPDH internal standard
Method: Of the 5 types of compounds confirmed in Example 4 to be effective for promoting the transcriptional activity of the erythropoietin gene promoter, 4 types of compounds (compounds #2, 4, 5, and 21) were selected. From Hep3B cells cultured in RPMI1640 common medium 1 supplemented with each of these 4 types of compounds at a concentration of 10 μM, total RNA was extracted using TriPure Isolation Reagent (manufactured by F. Hoffmann La Roche AG) in a 6-well cell culture plate. Hep3B cells cultured in the absence of the compound (DMSO added) (“20% O2/DMSO” of FIG. 4) were used as a negative control. Hep3B cells cultured in the presence of a GATA-specific inhibitor (K7174 [10 μM]) (“20% O2/K7174” of FIG. 4) and Hep3B cells cultured under hypoxia (1% O2) conditions and in the absence of the compound (DMSO added [1%]) (“1% O2/DMSO” of FIG. 4) were used as positive controls.
The extracted RNA was used as a template to synthesize cDNA using SuperScript III RTS First-strand kit (manufactured by Invitrogen Corp.). Then, the expression of the erythropoietin mRNA was measured by quantitative PCR with GAPDH as an internal standard. The quantitative PCR was carried out using TaqMan® Gene Expression Assays (using GAPDH; Assay ID: Rn99999916_s1, and human erythropoietin; Assay ID: Hs00171267_ml TaqMan® probes [manufactured by Applied Biosystems Inc.]) and Step One Plus Real-Time PCR System (manufactured by Applied Biosystems Inc.).

erythropoietin = assay: Erythropoietin production in vivo in mice, oral administration for 7 days; design: species or system mouse; conditions: 7 consecutive days, plasma 24 hours after final administration, vs corn oil, DMSO+corn oil or no administration
Method: A mixed solution (200 μl) of each of 4 types of compounds (compounds #4, 5, 21, and 35) (10 mg/100 μl of DMSO) (10 μl) and corn oil (190 μl) was prepared. This mixed solution (200 μl) was orally administered to each mouse (C57BL/6N 8 W, male, 21-25 g) between 15:00 to 18:00 every day using a sonde. This administration was carried out for 7 consecutive days. Mice orally given corn oil or DMSO and corn oil as well as non-administered mice were used as controls.
24 hours after the final administration, each mouse was cervically dislocated, and 500 μl of blood was collected from the heart. Then, an anticoagulant (10 μl of heparin) was added thereto, and the resulting blood was centrifuged (12000 rpm×20 min, 4° C.) to isolate plasma. The plasma concentration […] of erythropoietin was measured using a kit (Quantikine Mouse/Rat Epo Immunoassay, manufactured by R&D Systems, Inc.).

Leigh cells = assay: Cell death caused by oxidative stress (BSO) in Leigh syndrome patient fibroblasts; format: cell-based, human; conditions: compound 10 μM, 4 days after BSO treatment
Method: In Examples 2 to 7 and Reference Example 1 below, an erythropoietin-producing human hepatocellular carcinoma cell Hep3B (obtained from ATCC [American Type Culture Collection]) was cultured and maintained under conditions of 5% CO2/20% O2 and 37° C. in an RPMI1640 (manufactured by Life Technologies, Inc./GIBCO) medium containing 100 U/mL penicillin (manufactured by Life Technologies, Inc./GIBCO), 100 μg/mL streptomycin (manufactured by Life Technologies, Inc./GIBCO), and 10% fetal bovine serum (FBS) (manufactured by Life Technologies, Inc./GIBCO) (hereinafter, referred to as “RPMI1640 common medium 1”). In Example 15 below, Leigh syndrome patients were subjected to skin biopsy to obtain skin fibroblast cells, which were then primarily cultured under conditions of 5% CO2/20% O2 and 37° C. in a DMEM low glucose (manufactured by Life Technologies, Inc./GIBCO) medium containing 100 U/mL penicillin (manufactured by Life Technologies, Inc./GIBCO), 100 μg/mL streptomycin (manufactured by Life Technologies, Inc./GIBCO), and 1% FBS (manufactured by Life Technologies, Inc./GIBCO) (hereinafter, referred to as “DMEM low glucose common medium”) to isolate cells (Leigh cells). In Example 13 below, a human kidney-derived cell line HK-2 (obtained from ATCC) was cultured and maintained under conditions of 5% CO2/20% O2 and 37° C. in a DMEM/F12 (manufactured by Life Technologies, Inc./GIBCO) medium containing 100 U/mL penicillin (manufactured by Life Technologies, Inc./GIBCO), 100 μg/mL streptomycin (manufactured by Life Technologies, Inc./GIBCO), and 10% fetal bovine serum (manufactured by Life Technologies, Inc./GIBCO) (hereinafter, referred to as “DMEM/F12 common medium”). In Example 14 below, a rat islet of Langerhans-derived cell line ISN-1e (kindly provided by Hisamitsu Ishihara, Nihon University School of Medicine) was cultured and maintained under conditions of 5% CO2/20% O2 and 37° C. in an RPMI1640 (manufactured by Life Technologies, Inc./GIBCO) medium containing 10 mM HEPES (manufactured by Sigma-Aldrich Corp.), 2 mM glutamine (manufactured by Sigma-Aldrich Corp.), 50 μM β-mercaptoethanol (manufactured by Sigma-Aldrich Corp.), 100 U/mL penicillin (manufactured by Life Technologies, Inc./GIBCO), 100 μg/mL streptomycin (manufactured by Life Technologies, Inc./GIBCO), and 10% FBS (manufactured by Life Technologies, Inc./GIBCO) (hereinafter, referred to as “RPMI1640 common medium 2”).
The Leigh cells were seeded at 4×10^4 cells/well to a 24-well cell culture plate and then cultured for 24 hours. The glutathione synthesis inhibitor BSO (L-buthionine sulphoximine) (manufactured by Sigma-Aldrich Corp.) was mixed at […] into a medium. After culture for 24 hours in the presence of BSO, each of 5 types of compounds (compounds #2, 4, 5, 21, and 35) was mixed at 10 μM into the medium. After culture for 4 days in the presence of these 5 types of compounds, the number of live cells was measured using Cell Counting Kit-8 (manufactured by Dojindo Laboratories) to calculate the survival rate of the cells (“BSO+#2”, “BSO+#4”, “BSO+#5”, “BSO+#21”, and “BSO+#35” of FIG. 17). […]

SMILES | mRNA expression level of the erythropoietin gene [1] | amount of erythropoietin in the mouse blood (erythropoietin) | cell death of the Leigh cells by BSO (Leigh cells)
O=C(CC(C(=O)O)c1c[nH]c2ccccc12)c1ccc(F)cc1 (stereo not drawn) [compound #4, 4-(4-Fluorophenyl)-2-(1H-indol-3-yl)-4-oxo-butanoic acid] | increase the mRNA expression level | increased | efficiently suppress the cell death
O=C(CC(C(=O)O)c1c[nH]c2ccccc12)c1ccc(F)cc1F (stereo not drawn) [compound #5, 4-(2,4-Difluorophenyl)-2-(1H-indol-3-yl)-4-oxo-butanoic acid] | increase the mRNA expression level | increased | efficiently suppress the cell death
O=C(O)C(CCCC(F)(F)C(F)(F)F)c1c[nH]c2ccccc12 (stereo not drawn) [compound #21, α-(4,4,5,5,5-Pentafluoro-1-pentyl)-3-indoleacetic acid] | increase the mRNA expression level | increased | efficiently suppress the cell death
